In patent US10245261B2, “Substituted indol-5-ol derivatives and their therapeutic applications” (NantBioScience, Inc., priority 2013, dated 2019):
Like-named read-outs stand apart in the source and are kept apart here.

How the values were obtained:
[1] = target: Bmx(h) (Homo sapiens, UniProt P51813); assay: KinaseProfiler kinase assay; assay type: biochemical
Outline: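 Compounds were serially diluted from DMSO into 20 mM MOPS buffer with EDTA, Brij-35, glycerol, β-mercaptoethanol and 1 mg/mL BSA. Reactions started with MgATP/[γ-33P]ATP, ran 40 min at room temperature, and phosphorylation was measured by scintillation counting after filtermat capture.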

[2] = target: CDK5/p25(h) (Homo sapiens, UniProt Q00535); assay: KinaseProfiler kinase assay; assay type: biochemical
CDK5/p25(h), sequence (Q00535 whole entry): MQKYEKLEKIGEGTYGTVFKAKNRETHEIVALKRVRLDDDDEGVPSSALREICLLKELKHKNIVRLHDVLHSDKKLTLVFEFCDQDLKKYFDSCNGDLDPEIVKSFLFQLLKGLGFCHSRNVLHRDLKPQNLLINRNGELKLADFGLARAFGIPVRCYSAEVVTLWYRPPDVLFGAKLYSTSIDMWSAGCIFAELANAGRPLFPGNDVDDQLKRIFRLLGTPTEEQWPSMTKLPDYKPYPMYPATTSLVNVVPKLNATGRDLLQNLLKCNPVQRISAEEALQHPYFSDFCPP
CDK5/p25(h), sequence (Q15078 99-307 partner): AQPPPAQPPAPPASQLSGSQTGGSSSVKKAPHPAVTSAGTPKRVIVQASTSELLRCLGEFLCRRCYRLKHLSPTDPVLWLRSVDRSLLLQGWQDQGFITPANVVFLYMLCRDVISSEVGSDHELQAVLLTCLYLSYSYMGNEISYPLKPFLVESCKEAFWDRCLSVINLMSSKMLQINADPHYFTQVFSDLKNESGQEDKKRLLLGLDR

[3] = target: CHK2(R145W)(h) (Homo sapiens, UniProt O96017, R145W); assay: KinaseProfiler kinase assay; assay type: biochemical
CHK2(R145W)(h), sequence (O96017 whole entry R145W): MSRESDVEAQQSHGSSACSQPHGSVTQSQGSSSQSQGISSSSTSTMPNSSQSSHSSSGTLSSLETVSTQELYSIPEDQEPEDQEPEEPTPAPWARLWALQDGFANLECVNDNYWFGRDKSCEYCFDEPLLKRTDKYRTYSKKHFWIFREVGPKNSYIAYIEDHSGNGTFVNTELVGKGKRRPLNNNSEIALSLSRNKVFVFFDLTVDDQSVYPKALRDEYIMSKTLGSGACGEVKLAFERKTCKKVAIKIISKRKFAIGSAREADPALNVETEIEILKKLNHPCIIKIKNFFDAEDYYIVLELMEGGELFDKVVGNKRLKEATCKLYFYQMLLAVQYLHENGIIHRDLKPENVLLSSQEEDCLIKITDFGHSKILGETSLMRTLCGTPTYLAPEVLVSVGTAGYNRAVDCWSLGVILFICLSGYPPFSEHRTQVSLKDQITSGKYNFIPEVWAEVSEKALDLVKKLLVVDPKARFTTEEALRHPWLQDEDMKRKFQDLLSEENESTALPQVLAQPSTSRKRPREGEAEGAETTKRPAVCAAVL

[4] = tested on: CK1(y); assay: KinaseProfiler kinase assay; assay type: biochemical, yeast
[5] = target: Fgr(h) (Homo sapiens, UniProt P09769); assay: KinaseProfiler kinase assay; assay type: biochemical
Fgr(h), sequence (P09769 whole entry): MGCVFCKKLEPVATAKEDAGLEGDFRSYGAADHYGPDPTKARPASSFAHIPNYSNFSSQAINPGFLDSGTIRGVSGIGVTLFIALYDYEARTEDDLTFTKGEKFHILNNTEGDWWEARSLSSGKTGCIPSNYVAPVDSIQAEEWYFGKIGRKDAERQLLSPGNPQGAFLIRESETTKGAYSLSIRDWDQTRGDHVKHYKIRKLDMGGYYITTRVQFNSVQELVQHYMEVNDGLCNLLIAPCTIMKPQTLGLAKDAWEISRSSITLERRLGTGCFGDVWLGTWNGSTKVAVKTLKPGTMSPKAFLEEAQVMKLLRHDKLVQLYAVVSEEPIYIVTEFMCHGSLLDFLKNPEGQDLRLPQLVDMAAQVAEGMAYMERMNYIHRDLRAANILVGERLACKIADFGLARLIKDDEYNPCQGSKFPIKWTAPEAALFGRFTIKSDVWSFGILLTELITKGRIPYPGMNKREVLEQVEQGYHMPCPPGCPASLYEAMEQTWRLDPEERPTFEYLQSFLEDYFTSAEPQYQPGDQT

[6] = target: JNK2α2(h) (Homo sapiens, UniProt P45984); assay: KinaseProfiler kinase assay; assay type: biochemical
JNK2α2(h), sequence (P45984 whole entry): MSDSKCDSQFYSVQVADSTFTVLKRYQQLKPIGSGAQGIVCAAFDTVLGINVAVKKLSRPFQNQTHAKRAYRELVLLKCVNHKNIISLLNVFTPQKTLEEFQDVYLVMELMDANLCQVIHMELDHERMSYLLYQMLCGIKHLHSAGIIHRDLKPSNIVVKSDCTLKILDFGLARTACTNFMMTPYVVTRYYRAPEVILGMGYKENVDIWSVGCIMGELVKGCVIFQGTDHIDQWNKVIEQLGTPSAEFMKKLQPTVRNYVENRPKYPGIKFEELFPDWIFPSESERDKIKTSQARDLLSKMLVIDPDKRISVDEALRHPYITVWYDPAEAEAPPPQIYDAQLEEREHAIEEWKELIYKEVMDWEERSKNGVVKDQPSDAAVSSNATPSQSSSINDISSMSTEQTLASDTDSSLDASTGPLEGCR

[7] = target: mTOR(h) (Homo sapiens, UniProt P42345); assay: KinaseProfiler kinase assay; assay type: biochemical
[8] = target: PI3 Kinase (p110α(H1047R)/p85α)(h) (Homo sapiens, UniProt P42336, H1047R); assay: KinaseProfiler kinase assay; assay type: biochemical
[9] = target: PI3KC2α(h) (Homo sapiens, UniProt O00443); assay: KinaseProfiler kinase assay; assay type: biochemical
PI3KC2α(h), sequence (O00443 whole entry): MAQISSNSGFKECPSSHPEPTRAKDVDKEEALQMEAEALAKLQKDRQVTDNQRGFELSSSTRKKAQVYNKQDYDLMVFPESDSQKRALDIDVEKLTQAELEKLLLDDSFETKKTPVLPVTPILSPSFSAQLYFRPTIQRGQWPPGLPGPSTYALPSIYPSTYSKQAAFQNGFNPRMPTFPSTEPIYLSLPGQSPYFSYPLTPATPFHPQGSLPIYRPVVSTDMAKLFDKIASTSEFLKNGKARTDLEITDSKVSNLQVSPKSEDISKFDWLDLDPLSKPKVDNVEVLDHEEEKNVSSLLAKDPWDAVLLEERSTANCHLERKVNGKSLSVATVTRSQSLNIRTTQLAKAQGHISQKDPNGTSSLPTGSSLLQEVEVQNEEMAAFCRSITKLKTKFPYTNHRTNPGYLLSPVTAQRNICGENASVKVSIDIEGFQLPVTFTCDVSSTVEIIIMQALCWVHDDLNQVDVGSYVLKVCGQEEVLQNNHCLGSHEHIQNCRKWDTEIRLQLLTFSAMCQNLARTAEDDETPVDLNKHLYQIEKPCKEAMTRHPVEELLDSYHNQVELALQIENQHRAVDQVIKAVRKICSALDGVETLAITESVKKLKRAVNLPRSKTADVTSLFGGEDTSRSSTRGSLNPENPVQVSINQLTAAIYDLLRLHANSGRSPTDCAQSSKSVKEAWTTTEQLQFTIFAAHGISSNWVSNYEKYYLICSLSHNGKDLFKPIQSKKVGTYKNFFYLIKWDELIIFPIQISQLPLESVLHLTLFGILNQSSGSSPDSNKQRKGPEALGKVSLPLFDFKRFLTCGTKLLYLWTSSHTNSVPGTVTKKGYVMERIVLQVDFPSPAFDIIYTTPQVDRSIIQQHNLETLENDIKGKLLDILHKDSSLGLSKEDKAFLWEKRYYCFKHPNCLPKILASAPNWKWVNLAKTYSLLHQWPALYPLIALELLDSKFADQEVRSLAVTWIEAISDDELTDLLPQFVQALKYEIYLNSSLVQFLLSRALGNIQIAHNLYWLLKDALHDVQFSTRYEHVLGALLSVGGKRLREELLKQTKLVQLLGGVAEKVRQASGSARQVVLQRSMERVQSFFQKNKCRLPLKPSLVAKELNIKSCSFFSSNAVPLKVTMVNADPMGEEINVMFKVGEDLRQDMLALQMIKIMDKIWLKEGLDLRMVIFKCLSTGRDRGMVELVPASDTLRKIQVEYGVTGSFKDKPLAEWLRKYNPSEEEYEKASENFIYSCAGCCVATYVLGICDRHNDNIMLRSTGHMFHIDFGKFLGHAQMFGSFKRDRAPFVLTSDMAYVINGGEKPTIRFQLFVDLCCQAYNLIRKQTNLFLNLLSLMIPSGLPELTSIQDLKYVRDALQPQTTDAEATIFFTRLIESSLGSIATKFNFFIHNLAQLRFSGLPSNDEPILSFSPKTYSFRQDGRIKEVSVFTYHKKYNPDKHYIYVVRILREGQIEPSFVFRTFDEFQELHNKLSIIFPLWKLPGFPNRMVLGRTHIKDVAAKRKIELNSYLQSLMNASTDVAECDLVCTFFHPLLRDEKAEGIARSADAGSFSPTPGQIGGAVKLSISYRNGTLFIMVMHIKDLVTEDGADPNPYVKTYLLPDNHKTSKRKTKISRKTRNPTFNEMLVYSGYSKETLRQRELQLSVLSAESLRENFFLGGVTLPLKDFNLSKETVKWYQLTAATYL

[10] = target: PIP5K1γ(h) (Homo sapiens, UniProt O60331); assay: KinaseProfiler kinase assay; assay type: biochemical
PIP5K1γ(h), sequence (O60331 whole entry): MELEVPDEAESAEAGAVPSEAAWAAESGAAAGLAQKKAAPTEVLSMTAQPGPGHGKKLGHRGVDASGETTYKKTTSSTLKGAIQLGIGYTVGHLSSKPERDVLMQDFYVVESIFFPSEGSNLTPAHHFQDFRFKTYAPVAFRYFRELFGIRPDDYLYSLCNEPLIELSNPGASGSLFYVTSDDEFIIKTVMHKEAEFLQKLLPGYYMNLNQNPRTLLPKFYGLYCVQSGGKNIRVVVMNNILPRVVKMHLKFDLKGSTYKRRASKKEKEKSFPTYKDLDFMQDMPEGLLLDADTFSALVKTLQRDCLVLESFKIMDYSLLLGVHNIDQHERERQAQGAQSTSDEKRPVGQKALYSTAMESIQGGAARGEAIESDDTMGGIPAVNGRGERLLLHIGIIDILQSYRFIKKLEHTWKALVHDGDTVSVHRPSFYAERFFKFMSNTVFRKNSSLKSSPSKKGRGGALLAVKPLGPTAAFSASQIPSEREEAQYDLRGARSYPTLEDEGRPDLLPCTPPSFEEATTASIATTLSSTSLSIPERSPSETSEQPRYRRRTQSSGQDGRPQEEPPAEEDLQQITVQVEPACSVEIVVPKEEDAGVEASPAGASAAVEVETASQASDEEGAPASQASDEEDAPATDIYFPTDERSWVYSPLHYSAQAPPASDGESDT

[11] = tested on: NCI 60 cancer cell line panel; assay: NCI-60 DTP Human Tumor Cell Line Panel, SRB growth inhibition; assay type: cell-based; details: for GI50: Homo sapiens
Method: The human tumor cell lines of the cancer screening panel are grown in RPMI 1640 medium containing 5% fetal bovine serum and 2 mM L-glutamine. For a typical screening experiment, cells are inoculated into 96 well microtiter plates in 100 μL at plating densities ranging from 5,000 to 40,000 cells/well depending on the doubling time of individual cell lines. After cell inoculation, the microtiter plates are incubated at 37° C., 5% CO2, 95% air and 100% relative humidity for 24 h prior to addition of experimental drugs.
After 24 h, two plates of each cell line are fixed in situ with TCA, to represent a measurement of the cell population for each cell line at the time of drug addition (Tz). Experimental drugs are solubilized in dimethyl sulfoxide at 400-fold the desired final maximum test concentration and stored frozen prior to use. At the time of drug addition, an aliquot of frozen concentrate is thawed and diluted to twice the desired final maximum test concentration with complete medium containing 50 μg/ml gentamicin. Additional four, 10-fold or ½ log serial dilutions are made to provide a total of five drug concentrations plus control. Aliquots of 100 μl of these different drug dilutions are added to the appropriate microtiter wells already containing 100 μl of medium, resulting in the required final drug concentrations.
Following drug addition, the plates are incubated for an additional 48 h at 37° C., 5% CO2, 95% air, and 100% relative humidity. For adherent cells, the assay is terminated by the addition of cold TCA. Cells are fixed in situ by the gentle addition of 50 μl of cold 50% (w/v) TCA (final concentration, 10% TCA) and incubated for 60 minutes at 4° C. The supernatant is discarded, and the plates are washed five times with tap water and air dried. Sulforhodamine B (SRB) solution (100 μl) at 0.4% (w/v) in 1% acetic acid is added to each well, and plates are incubated for 10 minutes at room temperature. After staining, unbound dye is removed by washing five times with 1% acetic acid and the plates are air dried. Bound stain is subsequently solubilized with 10 mM trizma base, and the absorbance is read on an automated plate reader at a wavelength of 515 nm. For suspension cells, the methodology is the same except that the assay is terminated by fixing settled cells at the bottom of the wells by gently adding 50 μl of 80% TCA (final concentration, 16% TCA). Using the seven absorbance measurements [time zero, (Tz), control growth, (C), and test growth in the presence of drug at the five concentration levels (Ti)], the percentage growth is calculated at each of the drug concentrations levels. Percentage growth inhibition is calculated as: [(Ti−Tz)/(C−Tz)]×100 for concentrations for which Ti>/=Tz [(Ti−Tz)/Tz]×100 for concentrations for which Ti<Tz.
Three dose response parameters are calculated for each experimental agent.

Bmx(h), sequence (P51813 whole entry): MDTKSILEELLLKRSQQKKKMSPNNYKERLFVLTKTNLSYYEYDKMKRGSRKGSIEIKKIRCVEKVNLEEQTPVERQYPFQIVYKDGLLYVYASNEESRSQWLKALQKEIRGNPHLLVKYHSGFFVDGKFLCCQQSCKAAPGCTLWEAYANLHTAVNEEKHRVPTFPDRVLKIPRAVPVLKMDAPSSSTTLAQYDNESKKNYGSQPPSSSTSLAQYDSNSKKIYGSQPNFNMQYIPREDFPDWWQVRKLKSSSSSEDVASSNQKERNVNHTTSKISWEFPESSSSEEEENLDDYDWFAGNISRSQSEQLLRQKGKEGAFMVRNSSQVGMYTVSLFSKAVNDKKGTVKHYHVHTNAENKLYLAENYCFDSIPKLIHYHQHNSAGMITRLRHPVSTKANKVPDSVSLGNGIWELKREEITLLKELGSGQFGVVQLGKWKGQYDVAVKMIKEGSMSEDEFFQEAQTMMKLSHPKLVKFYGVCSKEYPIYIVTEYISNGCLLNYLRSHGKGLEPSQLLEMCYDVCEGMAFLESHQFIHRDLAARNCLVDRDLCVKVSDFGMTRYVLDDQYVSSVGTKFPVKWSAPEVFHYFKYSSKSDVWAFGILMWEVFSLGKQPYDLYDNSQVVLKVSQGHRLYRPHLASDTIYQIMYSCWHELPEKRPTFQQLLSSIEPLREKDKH

Cc1cc2c(F)c(Oc3nc(Nc4cc(C5CC5)[nH]n4)cc(N4CCN(C)CC4)n3)ccc2[nH]1 [Compound 10]
inhibition at 0.1 µM [1]: 98%
inhibition at 0.1 µM [2]: 24%
inhibition at 0.1 µM [3]: 22%
% inhibition @ 0.1 μM [4]: 17%
inhibition at 0.1 µM [5]: 97%
inhibition at 0.1 µM [6]: -20%
inhibition at 0.1 µM [7]: 25%
inhibition at 0.1 µM [8]: -8%
inhibition at 0.1 µM [9]: 15%
inhibition at 0.1 µM [10]: -8%

C/C=C/c1cc(Nc2cc(N3CCN(C)CC3)nc(Oc3cc(F)c4[nH]c(C)cc4c3F)n2)n[nH]1 [NTW-3456]
antiproliferative activity ([11]; cell lines from the NCI 60 panel): Anti-proliferative activity

C/C=C/c1cc(Nc2cc(N3CCN(C)CC3)nc(Oc3ccc4[nH]c(C)cc4c3F)n2)n[nH]1 [Compound 53]
GI50 ([11]; 60 cell, range over the NCI 60 cell lines (Table 6), read-out: growth inhibition (GI50)): 10 to 1890 nM
GI50 ([11]; 786-0, Renal Cancer, 786-0, read-out: GI50): 97.2 nM
GI50 ([11]; A498, Renal Cancer, A498, read-out: GI50): < 10 nM
GI50 ([11]; A549, Non-Small Cell Lung Cancer, A549/ATCC, read-out: GI50): 388 nM
GI50 ([11]; ACHN, Renal Cancer, ACHN, read-out: GI50): 190 nM
GI50 ([11]; BT-549, Breast Cancer, BT-549, read-out: GI50): 268 nM
GI50 ([11]; CAKI-1, Renal Cancer, CAKI-1, read-out: GI50): 901 nM
GI50 ([11]; CCRF-CEM, Leukemia, CCRF-CEM, read-out: GI50): < 10 nM
GI50 ([11]; COLO 205, Colon Cancer, COLO 205, read-out: GI50): 85.9 nM
GI50 ([11]; DU-145, Prostate Cancer, DU-145, read-out: GI50): 288 nM
GI50 ([11]; HCC 2998, Colon Cancer, HCC-2998, read-out: GI50): 1420 nM
GI50 ([11]; HCT-15, Colon Cancer, HCT-15, read-out: GI50): 397 nM
GI50 ([11]; HCT-116, Colon Cancer, HCT-116, read-out: GI50): 40.1 nM
GI50 ([11]; HL-60, Leukemia, HL-60(TB), read-out: GI50): 1430 nM
GI50 ([11]; HOP-62, Non-Small Cell Lung Cancer, HOP-62, read-out: GI50): 91.4 nM
GI50 ([11]; HOP-92, Non-Small Cell Lung Cancer, HOP-92, read-out: GI50): 22.4 nM
GI50 ([11]; HT-29, Colon Cancer, HT29, read-out: GI50): 96.3 nM
GI50 ([11]; Hs-578T, Breast Cancer, HS 578T, read-out: GI50): 13 nM
GI50 ([11]; IGROV-1, Ovarian Cancer, IGROV1, read-out: GI50): 47.2 nM
GI50 ([11]; K562, Leukemia, K-562, read-out: GI50): < 10 nM
GI50 ([11]; KM12, Colon Cancer, KM12, read-out: GI50): < 10 nM
GI50 ([11]; LOX IMVI, Melanoma, LOX IMVI, read-out: GI50): 34.3 nM
GI50 ([11]; MCF7, Breast Cancer, MCF7, read-out: GI50): < 10 nM
GI50 ([11]; MDA-MB-231, Breast Cancer, MDA-MB-231/ATCC, read-out: GI50): 227 nM
GI50 ([11]; MDA-MB-435, Melanoma, MDA-MB-435, read-out: GI50): 354 nM
GI50 ([11]; MDA-MB-468, Breast Cancer, MDA-MB-468, read-out: GI50): 39.2 nM
GI50 ([11]; MOLT-4, Leukemia, MOLT-4, read-out: GI50): 48.1 nM
GI50 ([11]; Malme-3M, Melanoma, MALME-3M, read-out: GI50): 132 nM
GI50 ([11]; Melanoma, M14, read-out: GI50): 166 nM
GI50 ([11]; NCI-H23, Non-Small Cell Lung Cancer, NCI-H23, read-out: GI50): 153 nM
GI50 ([11]; NCI-H226, Non-Small Cell Lung Cancer, NCI-H226, read-out: GI50): < 10 nM
GI50 ([11]; NCI-H322M, Non-Small Cell Lung Cancer, NCI-H322M, read-out: GI50): 915 nM
GI50 ([11]; NCI-H460, Non-Small Cell Lung Cancer, NCI-H460, read-out: GI50): 86.9 nM
GI50 ([11]; NCI-H522, Non-Small Cell Lung Cancer, NCI-H522, read-out: GI50): 72.2 nM
GI50 ([11]; NCI/ADR-RES, Ovarian Cancer, NCI/ADR-RES, read-out: GI50): 1540 nM
GI50 ([11]; OVCAR-3, Ovarian Cancer, OVCAR-3, read-out: GI50): 1070 nM
GI50 ([11]; OVCAR-4, Ovarian Cancer, OVCAR-4, read-out: GI50): 1550 nM
GI50 ([11]; OVCAR-5, Ovarian Cancer, OVCAR-5, read-out: GI50): 171 nM
GI50 ([11]; OVCAR-8, Ovarian Cancer, OVCAR-8, read-out: GI50): 187 nM
GI50 ([11]; Prostate Cancer, PC-3, read-out: GI50): 1270 nM
GI50 ([11]; RPMI-8226, Leukemia, RPMI-8226, read-out: GI50): 1890 nM
GI50 ([11]; RXF 393, Renal Cancer, RXF 393, read-out: GI50): 18.4 nM
GI50 ([11]; SF530, CNS Cancer, SF-530, read-out: GI50): 65.8 nM
GI50 ([11]; SF-268, CNS Cancer, SF-268, read-out: GI50): 87.7 nM
GI50 ([11]; SF-295, CNS Cancer, SF-295, read-out: GI50): 91 nM
GI50 ([11]; SK-MEL-2, Melanoma, SK-MEL-2, read-out: GI50): 1420 nM
GI50 ([11]; SK-MEL-5, Melanoma, SK-MEL-5, read-out: GI50): 1270 nM
GI50 ([11]; SK-MEL-28, Melanoma, SK-MEL-28, read-out: GI50): 342 nM
GI50 ([11]; SK-OV-3, Ovarian Cancer, SK-OV-3, read-out: GI50): 421 nM
GI50 ([11]; SN12C, Renal Cancer, SN12C, read-out: GI50): 48.7 nM
GI50 ([11]; SNB-19, CNS Cancer, SNB-19, read-out: GI50): 205 nM
GI50 ([11]; SNB-75, CNS Cancer, SNB-75, read-out: GI50): 15.8 nM
GI50 ([11]; SW-620, Colon Cancer, SW-620, read-out: GI50): 44.1 nM
GI50 ([11]; T47D, Breast Cancer, T-47D, read-out: GI50): 1030 nM
GI50 ([11]; U-251, CNS Cancer, U251, read-out: GI50): 103 nM
GI50 ([11]; UACC-62, Melanoma, UACC-62, read-out: GI50): 502 nM
GI50 ([11]; UACC-257, Melanoma, UACC-257, read-out: GI50): 388 nM
GI50 ([11]; UO-31, Renal Cancer, UO-31, read-out: GI50): 81 nM

Cc1cc2c(F)c(Oc3nc(Nc4cc(C5CC5)[nH]n4)cc(N4CCNCC4)n3)ccc2[nH]1 [Compound 11, N-(5-cyclopropyl-1H-pyrazol-3-yl)-2-((4-fluoro-2-methyl-1H-indol-5-yl)oxy)-6-(piperazin-1-yl)pyrimidin-4-amine]
inhibition at 0.1 µM [1]: 99%
inhibition at 0.1 µM [2]: 26%
inhibition at 0.1 µM [3]: 6%
% inhibition @ 0.1 μM [4]: 4%
inhibition at 0.1 µM [5]: 100%
inhibition at 0.1 µM [6]: -16%
inhibition at 0.1 µM [7]: 18%
inhibition at 0.1 µM [8]: -1%
inhibition at 0.1 µM [9]: -5%
inhibition at 0.1 µM [10]: -5%
